Results on 7 molecules are retold here after patent US12291533B2, “Substituted fused pyrimidine compounds and uses thereof” (Northwestern University, priority 2017, dated 2025).

The assay has as its target T1, glucocerebrosidase (Homo sapiens, UniProt P04062).
T1 sequence (P04062 40-536): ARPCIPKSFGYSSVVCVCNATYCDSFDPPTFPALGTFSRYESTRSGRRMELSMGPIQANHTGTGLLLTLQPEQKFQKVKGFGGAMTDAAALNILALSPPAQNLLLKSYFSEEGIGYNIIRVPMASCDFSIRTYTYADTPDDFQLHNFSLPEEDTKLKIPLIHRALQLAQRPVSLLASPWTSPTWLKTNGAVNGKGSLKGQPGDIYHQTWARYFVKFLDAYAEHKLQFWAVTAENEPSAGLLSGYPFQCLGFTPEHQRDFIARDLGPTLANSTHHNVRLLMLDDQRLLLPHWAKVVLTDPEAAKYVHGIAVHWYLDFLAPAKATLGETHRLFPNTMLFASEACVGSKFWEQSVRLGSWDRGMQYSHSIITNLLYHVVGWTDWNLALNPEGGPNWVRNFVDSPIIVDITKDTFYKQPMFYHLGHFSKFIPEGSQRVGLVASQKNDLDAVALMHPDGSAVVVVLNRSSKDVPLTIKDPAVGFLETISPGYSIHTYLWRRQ
Briefly: Glucocerebrosidase activity assay with blue substrate (4MU-Glc). The following applies: Table 2; additional compounds, tested as described in Example 2. In kind it is biochemical.
Usually AC50 stands for the midpoint of the concentration-response curve, whichever way the signal moves. As usually defined, the Emax is the greatest response seen or fitted, relative to the assay's reference. `CN(CCOc1ccccc1)c1cc(N2CC(O)C2)nc(-c2cccnc2)n1` [Compound 173]: the AC50 amounted to 2500 nM and the maximum response (Emax) amounted to 260%.

As for `CN(CCOc1ccccc1)c1cc(N2CCC(CO)CC2)nc(-c2cccnc2)n1` [Compound 174], the concentration at half-maximal activity (AC50) came to 14100 nM and the Emax worked out at 625%.

As for `CCCCCCCCCN(C)c1nc(-c2cccnc2)nc2ccccc12` [Compound 179], the concentration at half-maximal activity (AC50) is 6310 nM and the maximal effect (Emax) amounted to 118%.

As for `CN(CCOc1ccccc1)c1nc(-c2cccnc2)nc2cccnc12` [Compound 182], the AC50 was determined as 5010 nM and the maximal response (Emax) stood at 225%.

Turning to `CC(C)Cn1ncc2c(N(C)CCOc3ccccc3)nc(-c3cccnc3)nc21` [Compound 183], the half-maximal activity concentration (AC50) was 2500 nM and the Emax was 340%.

With `CCn1ncc2c(N(C)CCOc3ccc(CNC(=O)CCCCCNC(=O)CCOCCOCCOCCOCCNC(=O)OC(C)(C)C)cc3)nc(-c3cccnc3)nc21` [Compound 184], the AC50 is 2820 nM.

As to `CCCn1ncc2c(N(C)CCOc3ccccc3)nc(-c3cccnc3)nc21` [Compound 187], the AC50 came to 800 nM and the Emax came to 325%.
